Experiment: refractive index (other wavelength) (dimensionless); xn = mol fraction of the nth substance listed
Settings: 101.33 kPa, Liquid, Wavelength=632.8 nm, Standard Abbe refractometry

COC(=O)CCCCC(=O)OC [dimethyl 1,6-hexanedioate] + CCCCCCC
Settings	refractive index
289.5 K, x1 = 1	1.4287
291.65 K, x1 = 1	1.4279
292.22 K, x1 = 0.1018	1.3909
292.85 K, x1 = 0.5999	1.412
293.07 K, x1 = 0.7009	1.4159
293.2 K, x1 = 0.8979	1.4236
293.27 K, x1 = 0.1018	1.3904
293.28 K, x1 = 0.8048	1.42
293.87 K, x1 = 0.5999	1.4115
294.11 K, x1 = 0.8979	1.4232
294.12 K, x1 = 0.7009	1.4155
294.22 K, x1 = 0.8048	1.4196
294.37 K, x1 = 0.1018	1.3898
294.86 K, x1 = 0.5999	1.4111
294.9 K, x1 = 1	1.4265
294.96 K, x1 = 0.2007	1.398
295.01 K, x1 = 0.8979	1.4228
295.12 K, x1 = 0.8048	1.4192
295.15 K, x1 = 0.7009	1.415
295.39 K, x1 = 0.1018	1.3893
295.61 K, x1 = 0.3992	1.402
295.8 K, x1 = 0.4976	1.4062
295.83 K, x1 = 0.5999	1.4107
295.94 K, x1 = 0.8979	1.4224
295.95 K, x1 = 0.2007	1.3975
296.09 K, x1 = 0.8048	1.4188
296.15 K, x1 = 0.7009	1.4146
296.45 K, x1 = 0.1018	1.3888
296.65 K, x1 = 0.3992	1.4016
296.81 K, x1 = 0.5999	1.4103
296.89 K, x1 = 0.8979	1.422
296.9 K, x1 = 0.4976	1.4056
296.91 K, x1 = 0.2007	1.3971
296.94 K, x1 = 1	1.4257
297.08 K, x1 = 0.8048	1.4184
297.23 K, x1 = 0.7009	1.4142
297.45 K, x1 = 0.1018	1.3883
297.64 K, x1 = 0.3992	1.4011
297.81 K, x1 = 0.8979	1.4216
297.87 K, x1 = 0.5999	1.4098
297.95 K, x1 = 0.4976	1.4052
298.02 K, x1 = 0.2007	1.3965
298.02 K, x1 = 0.8048	1.418
298.15 K, x1 = 0.7009	1.4138
298.66 K, x1 = 0.3992	1.4007
298.92 K, x1 = 0.4976	1.4048
299.11 K, x1 = 0.2007	1.396
299.7 K, x1 = 0.3992	1.4002
299.93 K, x1 = 0.4976	1.4043
300.15 K, x1 = 0.2007	1.3955
300.67 K, x1 = 0.3992	1.3997
300.93 K, x1 = 0.4976	1.4039
301.21 K, x1 = 0.2007	1.395
301.74 K, x1 = 0.3992	1.3992
301.98 K, x1 = 0.4976	1.4034
